Laboratory results from patent US20060194815A1, “Methods and compositions for modulating serum cortisol levels” (priority 2003, published 2006).

System: peripheral-type benzodiazepine receptor (PBR)
Assay: PBR radioligand binding assay ([3H]PK 11195) in procaine-treated cells
Conditions: 1 μM procaine, 48 hour treatment
Method: Radioligand binding assays were performed as previously described (Papadopoulos et al., 1990, J. Biol. Chem. 265, 3772-3779). In brief, cells were scrapped from culture flasks into PBS, dispersed by trituration, and centrifuged at 1200×g for 5 min. The cells were resuspended in PBS to a final concentration of 10-50 μg protein/100 μl. Saturation binding studies were performed in a final volume of 300 μl in the presence of the radioligand [^3H]PK 11195 (specific activity 83.5 Ci/mmol; NEN Life Science Products) at the indicated concentrations. Nonspecific binding was determined in the presence of 6 μM of the homologous non-radioactive ligand. After 180 min incubation at 4° C., the assays were stopped by filtration through Whatman GF/C filters (Clifton, N.J.) and washed with 10 ml PBS. Bound radioactivity was determined by liquid scintillation counting. Bound [^3H]PK 11195 and [^3H]cholesterol were quantified by liquid scintillation spectrometry. Dissociation constants (Kd), the number of binding sites (Bmax) and Hill coefficients (nH) for PK 11195 and cholesterol were determined by Curve-Fit (Prism version 3.0, GraphPad Software Inc., San Diego, Calif.).

With `CCN(CC)CCOC(=O)c1ccc(N)cc1` [procaine] the “ligand binding characteristics / expression of PBR” value was “did not affect”, the “PBR Kd of [3H]PK 11195 in procaine-treated cells” value (control 1.8 nM, Kd of the radioligand, not of procaine) was 1.7 nM and the “PBR Bmax ([3H]PK 11195) in procaine-treated cells” value (control 27±3) was 29±4 pmol/mg protein. For the same compound, the “ligand binding characteristics / expression of PBR” value (listed as Procaine) was “had no effect”.
